According to ChEMBL document CHEMBL5604062, “ASAP - ZIKV NS2B-NS3 protease fluorescence dose response” (2024):
Several values for one entry are separate records, joined by “and”; a condition that tells them apart may be missing. Equal values may be shown once.

Target: Nonstructural protein 3 (Zika virus, UniProt A0A024AXB9)
Assay: Functional biochemical assay to identify treatments for viral infectious disease that targets Zika NS2B-NS3 protease. Utilizing a direct enzyme activity measurement method, reading the fluorescence intensity is used to characterize the relative potency of inhibitors as IC50.
Parameters: species or system PRVABC59

Nonstructural protein 3, sequence (A0A024AXB9 whole entry): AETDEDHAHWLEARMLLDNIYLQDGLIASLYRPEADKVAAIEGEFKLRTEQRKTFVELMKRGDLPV

SMILES	IC50
O=C(Nc1cc(Cl)cc([C@H](Nc2cccc(-c3nn[nH]n3)c2)C(=O)N[C@H]2CCOC2)c1)OCc1ccccc1	> 99.5 µM
CCc1ccc([C@@H](NC(=O)OCc2ccccc2)C(=O)Nc2cccc(CN)c2)cc1	> 99.5 µM
COc1cc(C#N)cc([C@H](Nc2ccc3c(c2)CNC3)C(=O)NCC(F)F)c1	0.042 µM and 0.031 µM
NCc1cccc(NC(=O)c2cc(C3CC3)nn2-c2ccccc2)c1	> 99.5 µM
CC(C)c1cc(-c2ccc([C@@H](NC(=O)OCc3ccccc3)C(=O)Nc3cccc(CN)c3)cc2)on1	24 µM
Cc1nc(C2CC2)[nH]c1C(=O)Nc1cc(CCCN)ccn1	> 25 µM
COCCN(C)Cc1ccnc(NC(=O)c2cc(C3CC3)n(C)c2C)c1	> 25 µM
NCc1cc(Cl)cc(C(=O)Nc2ccc3c(c2)C(=O)OC3)c1	> 25 µM
NCCc1nsc(NC(=O)c2cc(Cl)cc(NC(=O)OCc3ccccc3)c2)n1	> 99.5 µM
O=C(Nc1ccc(F)nc1)Oc1ccccc1	> 100 µM
CO[C@]1(C(=O)Nc2ccc3c(c2)C(=O)OC3)CCCNC1	> 25 µM
O=C(Nc1ccc2c(c1)CNC2)N1CCC[C@](O)(c2ccccc2)C1	> 25 µM
CCc1nc(C(=O)Nc2cccc(CN)c2)nn1-c1c(Cl)cccc1Cl	> 99.5 µM
C[C@H](N)c1cccc(NC(=O)c2cc(Cl)cc(NC(=O)OCc3ccccc3)c2)c1	13.7 µM
NCc1cccc(NC(=O)[C@@H](NC(=O)OCc2ccccc2)C2CCN(C3CCOCC3)CC2)c1	> 99.5 µM
NCc1cccc(NC(=O)[C@H]2COC3(CCOCC3)N2C(=O)OCc2ccccc2)c1	> 99.5 µM
C[C@@H](Cc1c[nH]c2ccccc12)N1CCC(c2nc3ccccc3s2)CC1	> 99.5 µM
Nc1cc(Cl)cc(C(=O)Nc2ccc3c(c2)CNC3)c1N	0.354 µM
O=C1OCc2ccc(NC(=O)[C@H]3CNC4(CCCC4)C3)cc21	> 25 µM
O=C(Nc1cc2c(c(C3=CCOCC3)c1)CNC2)c1cc(F)cc2[nH]ncc12	0.028 µM and 0.025 µM and 0.02 µM
C=CC[C@H](Nc1cc(Cl)cc(NC(=O)OCc2ccccc2)c1)c1ccc(-c2nn[nH]n2)cc1	9.66 µM
O=C(NCc1nccs1)c1sccc1Cl	> 99.5 µM
CCn1c(=O)c(N2C[C@]3(CO)C[C@H]2CO3)nc2ccccc21	> 99.5 µM
c1ccc(COc2cccc3[nH]cc(CN4CCC(c5cscn5)CC4)c23)cc1	> 99.5 µM
NC[C@H]1CC[C@@H](CNC(=O)[C@@H](NC(=O)OCc2ccccc2)c2ccc(OCc3ccccc3)cc2)CC1	58.2 µM
NCc1cccc(NC(=O)[C@@H](NS(=O)(=O)c2ccccn2)c2ccc(OCc3ccccc3)cc2)c1	> 99.5 µM

SMILES	IC50
CC(C)n1cc(CNC(=O)[C@@H](NC(=O)OCc2ccccc2)c2ccc(OCc3ccccc3)cc2)cn1	> 99.5 µM
Cc1ocnc1COc1cccc([C@H](NC(=O)OCc2ccccc2)C(=O)Nc2cccc(CN)c2)c1	> 99.5 µM
Cc1c(C(=O)Nc2cc(C(=O)N3CCCNC(=O)C3)ccn2)cc(C2CC2)n1C	> 25 µM
CCn1c(=O)c(N2CC[C@H](NC(=O)NC3CC3)C2)nc2ccccc21	> 99.5 µM
CS(=O)(=O)Nc1cccc(NC(=O)c2cc(Cl)cc(NC(=O)OCc3ccccc3)c2)c1	> 99.5 µM
CCn1c(=O)c(N2CCC[C@@H]2c2cncn2C)nc2ccccc21	> 99.5 µM
CN(C)CC[C@H](NC(=O)c1cc(Cl)cc(NC(=O)OCc2ccccc2)c1)c1ccccc1	> 99.5 µM
O=C(Nc1ccc2c(c1)CNC2)c1cc(F)cc2[nH]ncc12	0.04 µM and 0.049 µM
NCc1cccc(NC(=O)[C@H](NC(=O)Cn2cccn2)c2ccc(OCc3ccccc3)cc2)c1	> 99.5 µM
O=C(Nc1cc(Cl)cc(C(=O)Nc2cccc([C@H]3CCCN3)c2)c1)OCc1ccccc1	27.6 µM
CS(=O)(=O)N(c1cc(Cl)cc(C(=O)Nc2cccc(CN)c2)c1)S(C)(=O)=O	> 99.5 µM
CC(C)c1nc2cc(Cl)ccc2n1Cc1ccc(-c2nn[nH]n2)cc1	> 99.5 µM
C[C@@H](NC(=O)c1cc(Cl)ccc1NS(=O)(=O)c1ccc(Oc2ccccc2Cl)cc1)C(=O)O	> 99.5 µM
O=C(O)[C@@H]1CCCC[C@@H]1NS(=O)(=O)c1ccc(Oc2ccccc2Cl)cc1	> 99.5 µM
CC(=O)N1CCCc2cc(NC(=O)c3cc(C4CC4)n(C)c3C)ccc21	> 25 µM
O[C@@H]1CNC[C@H]1c1c[nH]c2ccccc12	> 99.5 µM
O=C(Nc1cc(Cl)cc(C(=O)N[C@@]23CCCCC[C@@H]2NCC3)c1)OCc1ccccc1	76.1 µM
CC[C@H](Cc1nnn[nH]1)c1ccc(NC(=O)c2cc(Cl)cc3[nH]ncc23)cc1	> 99.5 µM
N#C[C@H](Nc1ccc(CC(=O)O)cn1)c1cc(Cl)cc(C2CC2)c1	> 99.5 µM
CCn1cc(-c2ccccc2N)nc(N2CC[C@@H](CO)C2)c1=O	> 99.5 µM
CS(=O)(=O)c1cc(NC(=O)OCc2ccccc2)cc(C(=O)Nc2cccc(CN)c2)c1	> 99.5 µM
CC(C)NC(=O)[C@H](Nc1ccc2c(c1)CN(CC(F)F)C2)c1cc(Cl)cc2[nH]ncc12	> 25 µM
COC(=O)c1cc(NC(=O)c2cc(Cl)cc(NC(=O)OCc3ccccc3)c2)cc(-c2nnn[nH]2)c1	9.61 µM
NCc1cccc(NC(=O)[C@@H](NC(=O)OCc2ccccc2)c2ccc(OCc3ccncc3)cc2)c1	90 µM
NCc1cccc(NC(=O)[C@@H](NC(=O)OCc2ccccc2)c2ccc(-c3cccc(F)c3)cc2)c1	7.19 µM and 6.8 µM
O=C(Nc1cc(Cl)cc(C(=O)Nc2ccc([C@@H]3C[C@H]3C(=O)O)cc2)c1)OCc1ccccc1	44.3 µM

SMILES	IC50
CCn1c(=O)c(N2C[C@H]3CCCN3C(=O)[C@H]2C)nc2ccccc21	> 99.5 µM
O=C(Nc1ccc2c(c1)CNC2)c1cc(F)c2[nH]c(=O)[nH]c2c1	0.429 µM
N#C[C@H](Nc1cccc(-c2nn[nH]n2)c1)c1cc(Cl)cc(NC(=O)OCc2ccccc2)c1	24.6 µM and 27.6 µM and 24.8 µM
N[C@H]1CCCc2ccc(NC(=O)c3cc(Cl)cc(NC(=O)OCc4ccccc4)c3)cc21	12.1 µM
Cc1nc(-c2ccc([C@@H](NC(=O)OCc3ccccc3)C(=O)Nc3cccc(CN)c3)cc2)cs1	> 99.5 µM
NCc1cccc(NC(=O)[C@]2(NC(=O)OCc3ccccc3)CCOc3ccccc32)c1	> 99.5 µM
O=C(Nc1ccc2c(c1)CN(CC(F)F)C2)c1cc(Cl)cc2[nH]ncc12	3.8 µM
COc1cc(COc2cccnc2F)nc(N2CCNCC2)n1	> 99.5 µM
COCCCN1Cc2ccc(NC(=O)c3cc(Cl)cc4[nH]ncc34)cc2C1	13.1 µM
O=C(Nc1ccc2c(c1)CNC2)N1CCC[C@H]1c1nc2ncccc2[nH]1	> 25 µM
NCc1ccc(/C=C/C(=O)C(=O)N2CCOCC2)cc1	79.4 µM
CC(C)c1nn(C)cc1-c1cc(F)cc(C(=O)Nc2ccc3c(c2)CNC3)c1	0.632 µM
CCn1cc(-c2ccc3c(c2)CCNC3)nc(N2CC[C@@H](CO)C2)c1=O	> 99.5 µM
O=C1Cc2c(cccc2C(=O)N[C@H]2CC[C@H](OC3CCCC3)CC2)N1	> 25 µM
NCc1cccc(NC(=O)[C@@H](NC(=O)OCc2ccccc2)c2cc(F)cc(F)c2)c1	> 99.5 µM
Cc1c(C(=O)Nc2cc(C#N)c3ccccc3n2)cc(C2CC2)n1C	> 99.5 µM
Cc1cc([C@H](Nc2ccc3c(c2)CNC3)C(=O)NCC(F)F)cc(C(F)(F)F)c1	0.019 µM and < 0.012 µM
CNC(=O)[C@H](Nc1cc(CNC(=O)OC(C)(C)C)cc(C(=O)O)c1)c1cc(Cl)cc(C2CC2)c1	> 99.5 µM
O=C1Cc2c(cccc2C(=O)Nc2ccc3[nH]nnc3c2)N1	> 25 µM
CN1CCC[C@H](c2nc3c(C(=O)Nc4ccc5c(c4)CNC5)cc(F)cc3[nH]2)C1=O	0.163 µM
NCc1cccc(NC(=O)[C@H](NC(=O)OCc2ccccc2)C2CCNCC2)c1	> 99.5 µM
NCc1ccc(-c2ccc(OCC3CCNCC3)nc2-c2ccc(-c3ccoc3)cc2)cc1	22.8 µM
O=C(Nc1ccc2c(c1)CNC2)c1c(Br)ccc2[nH]ncc12	> 25 µM
CN(C)Cc1cccc(NC(=O)[C@H](NC(=O)OCc2ccccc2)c2ccc(OCc3ccccc3)cc2)c1	> 99.5 µM
Cc1cc(C(=O)Nc2ccc3c(c2)CNC3)c2cnn(C)c2n1	5.56 µM
O=C(Nc1ccc2c(c1)CNC2)c1cc(Cl)cc(C2CC2)c1	0.216 µM

SMILES	IC50
CC1(C)OB(c2cccc(F)c2CNC2CCCC2)OC1(C)C	> 99.5 µM
NCCCc1ccnc(NC(=O)c2cc(Cl)cc(NC(=O)OCc3ccccc3)c2)c1	18.4 µM
O=C(O)c1cc(Cl)ccc1S(=O)(=O)Nc1ccc(C(=O)N2CCCCC2)cc1	> 99.5 µM
NCc1ccc(NC(=O)c2cc(Cl)cc3[nH]ncc23)cc1F	4.94 µM
O=C(NC1CCCCC1)c1cc(Cl)ccc1NS(=O)(=O)c1ccc(Oc2ccccc2Cl)cc1	> 99.5 µM
c1nnc(SCCCSc2nncs2)s1	> 99.5 µM
CN(C)Cc1cc(Cl)cc(C(=O)Nc2cccc(CN)c2)c1	7.99 µM
CC(=Cc1cccc(-c2nnn[nH]2)c1)c1cc(Cl)cc(NC(=O)OCc2ccccc2)c1	12.1 µM
COc1cncc(CNC(=O)[C@@H](NC(=O)OCc2ccccc2)c2ccc(OCc3ccccc3)cc2)c1	> 99.5 µM
O=C(Nc1cccnc1)C1CCN(Cc2c[nH]c3ccccc23)CC1	64.3 µM
O=C(Nc1cc(Cl)cc(C(=O)Nc2ccc3c(c2)OCCNC3)c1)OCc1ccccc1	15.2 µM
CN(C(=O)c1cc(Cl)cc(NC(=O)OCc2ccccc2)c1)c1ccc(CN)cc1	> 99.5 µM
CCC1([C@H](NC(=O)OCc2ccccc2)C(=O)Nc2cccc(CN)c2)CCCCC1	> 99.5 µM
NCc1cccc(NC(=O)C[C@@H](NC(=O)OCc2ccccc2)c2ccc3c(c2)OCO3)c1	> 99.5 µM
NCc1cccc(NC(=O)c2cccc(Oc3ccc(Cl)c(Cl)c3)n2)c1	39.4 µM
O=Cc1ccc(N2CCC(C(=O)N3CCN(c4cccc(O)c4)CC3)CC2)cc1	49.4 µM
Cc1ccc2c(c1)CN(C(=O)c1ccc(C3(CN)CC3)cc1)C(C)(C)C2	> 99.5 µM
CC(C)OC(=O)Nc1cc(Cl)cc(C(=O)Nc2cccc(CN)c2)c1	2.46 µM
Cn1ncc(C(=O)Nc2cc(CCCN)ccn2)c1O	> 25 µM
NCc1cccc(NC(=O)[C@@H](NS(=O)(=O)C[C@H]2CCCCO2)c2ccc(OCc3ccccc3)cc2)c1	> 99.5 µM
C=C[C@H]1NCc2cc(NC(=O)c3cc(F)cc4[nH]ncc34)ccc21	0.359 µM
CC(F)(F)c1cccc(NC(=O)c2cc(Cl)cc(NC(=O)OCc3ccccc3)c2)c1	> 99.5 µM
O=C1Cc2c(cccc2C(=O)NC2CCN(c3nccs3)CC2)N1	> 25 µM
